Test results reported in the Bradley open melting point set (2014).
“And” between values parts separate entries of the source, which are not always exact repeats. Identical values can stand only once.

| melting point | Compound |
| --- | --- |
| 177 °C | O=[N+]([O-])c1cc[n+]([O-])c(Cl)c1F [2-chloro-3-fluoro-4-nitropyridine n-oxide] |
| 2 °C | c1ccc2scnc2c1 [benzothiazole] |
| -48 °C | Cc1cccc(Cl)c1 [1-Chloro-3-methylbenzene] |
| 55 °C | CC(=O)c1ccc2ccccc2c1 [2-Acetylnaphthalene] |
| -115 °C | CCN(CC)CC [N,N-Diethylethanamine] |
| 278 °C | ON=C(Cl)c1ccc(Cl)cc1 [4-chloro-N-hydroxybenzenecarboximidoyl chloride] |
| 43 °C | N#Cc1ccccc1N1CCCCC1 [2-(1-piperidinyl)benzonitrile] |
| 169 °C | CC(=O)C1=CC[C@H]2[C@@H]3CC(=O)C4=C[C@@H](O)CC[C@]4(C)[C@H]3CC[C@]12C [3β-Hydroxypregna-4,16-diene-6,20-dione] |
| 148 °C | COC(=O)c1cccc(C(N)=O)c1 [isophthalic_acid,_methylester_amide] |
| -63 °C | CC(C)c1cccc(C(C)C)c1 [1,3-diisopropylbenzene] |
| 127 °C | O=C(O)Cc1cc(O)ccc1O [2,5-dihydroxyphenylacetic_acid] |
| 112 °C | ON=Cc1ccc(O)cc1 [p-Hydroxybenzaldehyde oxime] |
| 4 °C | CCOc1ccc(Br)cc1 [4-bromophenetole] |
| 148 °C | Nc1ccc(/N=C/c2cccc([N+](=O)[O-])c2)cc1 [4-[(E)-(3-Nitrobenzylidene)amino]aniline] |
| 92 °C | Cc1cc(Br)cnc1N [2-amino-5-bromo-3-methylpyridine] |
| 156 °C | O=C(O)c1cccc(Br)c1 [3-bromobenzoic acid] |
| 79 °C | Cc1ccc(/C=C(/C#N)c2nc(-c3ccccc3)cs2)cc1 |
| 274 °C | O=C1c2ccccc2C(=O)N1c1nc2ccccc2[nH]1 [2-(1H-Benzimidazol-2-yl)-1H-isoindole-1,3(2H)-dione] |
| 195 °C | Nc1cc2ccccc2cc1N [2,3-diaminonaphthalene] |
| 58 °C | O=C1CCc2ccc(F)cc21 [6-fluoro-1-indanone] |
| 43 °C | COC(=O)c1cc(OC)cc(OC)c1 [methyl_3,5-dimethoxybenzoate] |
| 57 °C | O=Cc1ccc(Br)cc1 [4-bromobenzaldehyde] |
| 130 °C | NC(=O)c1cccnc1 [nicotinamide] |
| 39 °C | N#Cc1cc(C(F)(F)F)ccc1Cl [2-chloro-5-(trifluoromethyl)benzonitrile] |
| 155 °C | N#CC(=CN(O)c1ccccc1)c1ccccc1 [3-[hydroxy(phenyl)amino]-2-phenylprop-2-enenitrile] |
| 58 °C | N#CCc1cccc(C(F)(F)F)c1Cl [2-chloro-3-(trifluoromethyl)phenylacetonitrile] |
| 105 °C | CCCCc1ccc(NC(C)=O)cc1 [N-(4-butylphenyl)acetamide] |

| melting point | Compound |
| --- | --- |
| 201 °C | NC(CCC(=O)O)C(=O)O (stereo in doubt) [D-Glutamic Acid] |
| 3 °C | CC(=O)OCC(COC(C)=O)OC(C)=O [triacetin] |
| 300 °C | Cc1ccc(O)c(/N=N/c2c(O)cc(S(=O)(=O)O)c3ccccc23)c1 |
| 22 °C | O=CN1CCOCC1 [4-formylmorpholine] |
| 56 °C | CCCCCCCCCCCCCCCCCCN [Octadecan-1-amine] |
| 114 °C | CC(C(O)c1ccc(O)cc1)N1CCC(Cc2ccccc2)CC1 (stereo not drawn) [ifenprodil] |
| 117 °C | Cc1ccc2ncccc2c1[N+](=O)[O-] [6-methyl-5-nitroquinoline] |
| -138 °C and -137 °C | CCCC [butane] |
| -44 °C | CCCCCNCCCCC [N-Pentylpentan-1-amine] |
| -99 °C | C/C=C/CCC [trans-2-hexene] |
| 57 °C | CCCCCCCCCCCCCCCCCC(=O)OC[C@@H](O)[C@H]1OC[C@H](O)[C@H]1O [1,4-Anhydro-6-O-stearoyl-D-glucitol] |
| 198 °C | N#CCc1ccc(B(O)O)cc1 [4-(cyanomethyl)benzeneboronic acid] |
| -22 °C | C=CCCC(=O)O [4-pentenoic acid] |
| 143 °C | COC(=O)c1ccc(-c2cccc([N+](=O)[O-])c2)cc1 [methyl 3'-nitrobiphenyl-4-carboxylate] |
| 233 °C | COc1ccc(Cc2cnc(N)nc2N)cc1OC [diaveridine] |
| 104 °C | O=S(=O)(Cl)Cc1ccc(C(F)(F)F)cc1 [4-trifluoromethyl-alpha-toluenesulfonyl chloride] |
| 118 °C | O=C(c1ccccc1)c1cc(C(=O)c2ccccc2)cc(C(=O)c2ccccc2)c1 [1,3,5-tribenzoylbenzene] |
| 236 °C | Cc1cc(C)cc(B(O)O)c1 [3,5-dimethylbenzeneboronic acid] |
| 72 °C | C/C=C/C(=O)O [trans-crotonic acid] |
| 116 °C | O=Cc1ccc(C=O)cc1 [terephthaldicarboxaldehyde] |
| 118 °C | COc1ccc2c(c1)no[n+]2[O-] [5-Methoxybenzofurazan, 1-oxide] |
| 172 °C | NNC(=O)c1ccncc1 [isonicotinic acid hydrazide] |
| -35 °C | C=CCCCCCCCCCC [Dodec-1-ene] |
| -78 °C | C#CC(C)(C)C [3,3-dimethyl-1-butyne] |
| 105 °C | CC1(C)C(=O)NC(=O)N1CO [1-hydroxymethyl-5,5-dimethylhydantoin] |
| 158 °C | O=C(O)CCc1nc(-c2ccccc2)c(-c2ccccc2)o1 [Oxaprozin] |
| 36 °C | O=Cc1ccc([N+](=O)[O-])o1 [5-nitro-2-furaldehyde] |

| melting point | Compound |
| --- | --- |
| 115 °C | COC(=O)c1ccc(I)cc1 [methyl 4-iodobenzoate] |
| 48 °C | CCCCCCCCCCCCCCCCCCCC(=O)OC [methyl eicosanoate] |
| 214 °C | C[C@]12CCC(=O)C=C1CC[C@@H]1[C@@H]2[C@@H](O)C[C@@]2(C)[C@H]1CC[C@]2(O)C(=O)CO [hydrocortisone] |
| 228 °C | COc1ccc([C@@H]2CC(=O)c3c(O)cc(O)cc3O2)cc1O [hesperetin] |
| 153 °C | O=[N+]([O-])c1cc[n+]([O-])cc1Br [3-bromo-4-nitropyridine n-oxide] |
| 278 °C | CN(C)c1ccc(/C=C2\SC(=S)NC2=O)cc1 [5-(4-dimethylaminobenzylidene)rhodanine] |
| 112 °C | O=C(O)CCc1cccc(O)c1 [3-(3-hydroxyphenyl)propionic acid] |
| 55 °C | CCCC(C)(CO)CO [2-methyl-2-propyl-1,3-propanediol] |
| 180 °C | NC12CC3CC(CC(C3)C1)C2 [1-adamantylamine] |
| 188 °C | Nc1ccc(C(=O)O)cc1 [4-Aminobenzoic acid] |
| 78 °C | O=Cc1ccc(I)cc1 [p-iodobenzaldehyde] |
| 76 °C | CC(=O)C(C)=NO [2,3-butanedione monoxime] |
| 5 °C | Cc1ccc(Cc2ccccc2)cc1 [4-methyldiphenylmethane] |
| 28 °C | c1ccc(Oc2ccccc2)cc1 [diphenyl ether] |
| 72 °C | O=[N+]([O-])c1c(Cl)cc(Cl)cc1Cl [1,3,5-Trichloro-2-nitrobenzene] |
| 117 °C | O=C(O)Cc1ccc(Br)cc1 [4-bromophenylacetic acid] |
| 44 °C | N#Cc1ccc(Oc2ccccc2)cc1 [4-phenoxybenzonitrile] |
| 124 °C | CC(C)(C)NCC(O)COc1cccc2c1CC(O)C(O)C2 (stereo not drawn) |
| 8 °C | CC1=CC(=O)OC1=O [citraconic anhydride] |
| 118 °C | COc1ccc([N+](=O)[O-])cc1N [2-Methoxy-5-nitroaniline] |
| 163 °C | O=C(NC1CCC(O)CC1)OCc1ccccc1 (stereo not drawn) [4-(benzyloxycarbonylamino)cyclohexanol] |
| 160 °C | CC(=O)OCC1=C(C(=O)O)N2C(=O)[C@@H](NC(=O)Cc3cccs3)[C@H]2SC1 [Cefalotin] |
| 106 °C | Cc1cc(CCN2CCN(c3cccc(Cl)c3)CC2)n[nH]1 [mepiprazole] |
| 69 °C | CCCCOC(=O)c1ccc(O)cc1 [butyl p-hydroxybenzoate] |
| -30 °C | [2H]C([2H])([2H])C([2H])([2H])C([2H])([2H])C([2H])([2H])C([2H])([2H])C([2H])([2H])C([2H])([2H])C([2H])([2H])C([2H])([2H])C([2H])([2H])[2H] [(~2~H_22_)Decane] |
| 315 °C | CC(C)[C@H](N)C(=O)O [L-valine] |

| Compound | melting point |
| --- | --- |
| c1ccc(/N=N/c2ccccc2)cc1 [(E)-Diphenyldiazene] | 68.5 °C |
| C1CC[C@H]2CCCC[C@H]2C1 [cis-Decahydronaphthalene] | -43 °C |
| CC12CCC(=O)C=C1CCC1C2CCC2(C)C(O)CCC12 (stereo not drawn) [testosterone] | 153 °C |
| CCC1(c2ccccc2)C(=O)NC(=O)NC1=O [Phenobarbital] | 174 °C |
| CCCCCCCCCC#N [nonyl_cyanide] | -15 °C |
| C#CC1(O)CCCCC1 [1-ethynylcyclohexanol] | 32 °C |
| Nc1cccc([N+](=O)[O-])c1 [3-nitroaniline] | 113 °C |
| Oc1ccc(O)c(Cl)c1 [2-chlorohydroquinone] | 102 °C |
| CCC(Br)CBr (stereo not drawn) [1,2-dibromobutane] | -65 °C |
| Cc1ccc(C)c(N)c1 [2,5-Xylidine] | 15.5 °C |
| Clc1ccccc1C(Cl)(Cl)Cl [2-chlorobenzotrichloride] | 30 °C |
| NC(CO)Cc1ccccc1 (single isomer, unassigned; (-)) [(-)-2-amino-3-phenyl-1-propanol] | 92 °C |
| CCCC(C)(COC(N)=O)COC(N)=O [Meprobamate] | 105 °C |
| COc1ccc(N)cc1 [p-anisidine] | 58 °C |
| O=C(CBr)c1ccc(Br)cc1 [2,4'-dibromoacetophenone] | 110 °C |
| ClC(Cl)C(Cl)(Cl)Cl [pentachloroethane] | -29 °C |
| CC(=O)Nc1ccccc1C(=O)O [2-acetamidobenzoic acid] | 186 °C |
| [C-]#[N+]CS(=O)(=O)c1ccc(C)cc1 [p-toluenesulfonylmethyl isocyanide] | 112 °C |
